Data reported in patent publication US20230085307A1, “PYRIDAZINONE COMPOUND AND HERBICIDE” (NISSAN CHEMICAL CORPORATION, priority 2019, published 2023).

Key:
barnyard grass [1] = experiment: Test Example 3: herbicidal effect by foliage application, Wagner pot (Table 18, symbol H); assay type: in vivo, barnyard grass (Echinochloa crus-galli); details: 320 g/ha
Procedure, shortened: (§1)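 Plants were sown in alluvial soil held under 0.1–0.5 cm standing water and grown 14 days in a greenhouse at 25–30 °C. An emulsifiable formulation, water-diluted to the set dose, was then sprayed onto the foliage, and effects were scored three weeks later using previously defined criteria.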

Chinese sprangletop = experiment: Test Example 3: herbicidal effect by foliage application, Wagner pot (Table 18, symbol D); assay type: in vivo, chinese sprangletop (Leptochloa chinensis); details: 320 g/ha
Procedure, shortened: as §1

rice flat sedge = experiment: Test Example 3: herbicidal effect by foliage application, Wagner pot (Table 18, symbol E); assay type: in vivo, rice flat sedge (Cyperus iria); details: 320 g/ha
Procedure, shortened: as §1

southern crabgrass [2] = experiment: Test Example 4: herbicidal effect by soil treatment (Table 19, symbol F); assay type: in vivo, southern crabgrass (Digitaria ciliaris); details: AAH 320 g/ha
Procedure, shortened: (§2)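 In this soil treatment, the formulated compound reached the seeds only through the soil: seeds were buried about 1.5 cm deep in sterilized diluvial soil, then the diluted emulsion was sprayed over the surface. After three weeks at 25° C. to 30° C. in a greenhouse, effects were graded on criteria from an earlier test.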

green foxtail [3] = experiment: Test Example 4: herbicidal effect by soil treatment (Table 19, symbol G); assay type: in vivo, green foxtail (Setaria viridis); details: AAH 320 g/ha
Procedure, shortened: as §2

barnyard grass [4] = experiment: Test Example 4: herbicidal effect by soil treatment (Table 19, symbol H); assay type: in vivo, barnyard grass (Echinochloa crus-galli); details: AAH 320 g/ha
Procedure, shortened: as §2

wild oat [5] = experiment: Test Example 4: herbicidal effect by soil treatment (Table 19, symbol I); assay type: in vivo, wild oat (Avena fatua); details: AAH 320 g/ha
Source text: (§3) [Test Example 4] Herbicidal Effect Test by Soil Treatment
(§4) Sterilized diluvial soil was placed in a plastic box having a length of 21 cm, a width of 13 cm, and a depth of 7 cm. The seeds of each of southern crabgrass, green foxtail, barnyard grass, wild oat, blackgrass, Italian ryegrass, windgrass, velvetleaf, redroot pigweed, lambsquarters, chickweed, false cleavers, persian speedwell, corn, soybean, rice, wheat, beet, and rapeseed were sowed in a spot-like manner and covered with the soil having a thickness of about 1.5 cm. Subsequently, the emulsion agent of the compound of the present invention prepared according to Formulation Example 2 was diluted with water so as to achieve a predetermined herbicide amount, and the diluted emulsion agent was uniformly applied to the surface of the soil with a small-sized spray. The plastic box was placed in a greenhouse at 25° C. to 30° C. for growth of the plants. Three weeks after the herbicide application, the effect of the herbicide on each plant was evaluated according to the criteria of Test Example 1.

blackgrass [6] = experiment: Test Example 4: herbicidal effect by soil treatment (Table 19, symbol J); assay type: in vivo, blackgrass (Alopecurus myosuroides); details: AAH 320 g/ha
Source text: as §3, §4

Italian ryegrass [7] = experiment: Test Example 4: herbicidal effect by soil treatment (Table 19, symbol K); assay type: in vivo, Italian ryegrass (Lolium multiflorum); details: AAH 320 g/ha
Source text: as §3, §4

windgrass [8] = experiment: Test Example 4: herbicidal effect by soil treatment (Table 19, symbol L); assay type: in vivo, windgrass (Apera spica-venti); details: AAH 320 g/ha
Procedure, shortened: as §2

velvetleaf [9] = experiment: Test Example 4: herbicidal effect by soil treatment (Table 19, symbol M); assay type: in vivo, velvetleaf (Abutilon theophrasti); details: AAH 320 g/ha
Procedure, shortened: as §2

redroot pigweed [10] = experiment: Test Example 4: herbicidal effect by soil treatment (Table 19, symbol N); assay type: in vivo, redroot pigweed (Amaranthus retroflexus); details: AAH 320 g/ha
Procedure, shortened: as §2

lambsquarters [11] = experiment: Test Example 4: herbicidal effect by soil treatment (Table 19, symbol O); assay type: in vivo, lambsquarters (Chenopodium album); details: AAH 320 g/ha
Procedure, shortened: as §2

chickweed [12] = experiment: Test Example 4: herbicidal effect by soil treatment (Table 19, symbol P); assay type: in vivo, common chickweed (Stellaria media); details: AAH 320 g/ha
Source text: as §3, §4

southern crabgrass [13] = experiment: Test Example 5: herbicidal effect by foliage application, plastic box (Table 20, symbol F); assay type: in vivo, southern crabgrass (Digitaria ciliaris); details: foliage application, AAH 320 g/ha, three weeks after application
Procedure, shortened: (§5)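 Plants were sown into sterilized diluvial soil under about 1.5 cm cover and kept in a greenhouse at 25° C. to 30° C. Fourteen days on, foliage received an even spray of the diluted emulsion. Herbicidal or crop effect was judged three weeks afterwards.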

green foxtail [14] = experiment: Test Example 5: herbicidal effect by foliage application, plastic box (Table 20, symbol G); assay type: in vivo, green foxtail (Setaria viridis); details: foliage application, AAH 320 g/ha, three weeks after application
Procedure, shortened: as §5

barnyard grass [15] = experiment: Test Example 5: herbicidal effect by foliage application, plastic box (Table 20, symbol H); assay type: in vivo, barnyard grass (Echinochloa crus-galli); details: foliage application, AAH 320 g/ha, three weeks after application
Procedure, shortened: as §5

wild oat [16] = experiment: Test Example 5: herbicidal effect by foliage application, plastic box (Table 20, symbol I); assay type: in vivo, wild oat (Avena fatua); details: foliage application, AAH 320 g/ha, three weeks after application
Procedure, shortened: as §5

blackgrass [17] = experiment: Test Example 5: herbicidal effect by foliage application, plastic box (Table 20, symbol J); assay type: in vivo, blackgrass (Alopecurus myosuroides); details: foliage application, AAH 320 g/ha, three weeks after application
Procedure, shortened: as §5

Italian ryegrass [18] = experiment: Test Example 5: herbicidal effect by foliage application, plastic box (Table 20, symbol K); assay type: in vivo, Italian ryegrass (Lolium multiflorum); details: foliage application, AAH 320 g/ha, three weeks after application
Procedure, shortened: as §5

windgrass [19] = experiment: Test Example 5: herbicidal effect by foliage application, plastic box (Table 20, symbol L); assay type: in vivo, windgrass (Apera spica-venti); details: foliage application, AAH 320 g/ha, three weeks after application
Procedure, shortened: as §5

velvetleaf [20] = experiment: Test Example 5: herbicidal effect by foliage application, plastic box (Table 20, symbol M); assay type: in vivo, velvetleaf (Abutilon theophrasti); details: foliage application, AAH 320 g/ha, three weeks after application
Procedure, shortened: as §5

redroot pigweed [21] = experiment: Test Example 5: herbicidal effect by foliage application, plastic box (Table 20, symbol N); assay type: in vivo, redroot pigweed (Amaranthus retroflexus); details: foliage application, AAH 320 g/ha, three weeks after application
Procedure, shortened: as §5

lambsquarters [22] = experiment: Test Example 5: herbicidal effect by foliage application, plastic box (Table 20, symbol O); assay type: in vivo, lambsquarters (Chenopodium album); details: foliage application, AAH 320 g/ha, three weeks after application
Procedure, shortened: as §5

chickweed [23] = experiment: Test Example 5: herbicidal effect by foliage application, plastic box (Table 20, symbol P); assay type: in vivo, common chickweed (Stellaria media); details: foliage application, AAH 320 g/ha, three weeks after application
Procedure, shortened: as §5

persian speedwell = experiment: Test Example 5: herbicidal effect by foliage application, plastic box (Table 20, symbol R); assay type: in vivo, Persian speedwell (Veronica persica); details: foliage application, AAH 320 g/ha, three weeks after application
Procedure, shortened: as §5

## Cc1nn(C)c(=O)c(-c2c(-c3ccc([Si](C)(C)C)cc3)sc3ccccc23)c1O [1-153]
Barnyard grass [1]
  herbicidal effect on H (barnyard grass), rating 0-5: 4 (Herbicidal rate of 70% or more and less than 90%)
Chinese sprangletop
  herbicidal effect on D (Chinese sprangletop), rating 0-5: 2 (Herbicidal rate of 20% or more and less than 40%)
Rice flat sedge
  herbicidal effect on E (rice flat sedge), rating 0-5: 3 (Herbicidal rate of 40% or more and less than 70%)
Southern crabgrass [2]
  F: southern crabgrass, herbicidal effect rating: 2 (Herbicidal rate of 20% or more and less than 40%)
Green foxtail [3]
  G: green foxtail, herbicidal effect rating: 3 (Herbicidal rate of 40% or more and less than 70%)
Barnyard grass [4]
  H: barnyard grass, herbicidal effect rating: 0 (Herbicidal rate of 5% or less (almost no effect))
Wild oat [5]
  I: wild oat, herbicidal effect rating: 0 (Herbicidal rate of 5% or less (almost no effect))
Blackgrass [6]
  J: blackgrass, herbicidal effect rating: 0 (Herbicidal rate of 5% or less (almost no effect))
Italian ryegrass [7]
  K: Italian ryegrass, herbicidal effect rating: 0 (Herbicidal rate of 5% or less (almost no effect))
Windgrass [8]
  L: windgrass, herbicidal effect rating: 0 (Herbicidal rate of 5% or less (almost no effect))
Velvetleaf [9]
  M: velvetleaf, herbicidal effect rating: 0 (Herbicidal rate of 5% or less (almost no effect))
Redroot pigweed [10]
  N: redroot pigweed, herbicidal effect rating: 3 (Herbicidal rate of 40% or more and less than 70%)
Lambsquarters [11]
  O: lambsquarters, herbicidal effect rating: 5 (Herbicidal rate of 90% or more (almost completely withered))
Chickweed [12]
  P: chickweed, herbicidal effect rating: 0 (Herbicidal rate of 5% or less (almost no effect))
Southern crabgrass [13]
  F: southern crabgrass, herbicidal effect: 0 (Herbicidal rate of 5% or less (almost no effect))
Green foxtail [14]
  G: green foxtail, herbicidal effect: 3 (Herbicidal rate of 40% or more and less than 70%)
Barnyard grass [15]
  H: barnyard grass, herbicidal effect: 0 (Herbicidal rate of 5% or less (almost no effect))
Wild oat [16]
  I: wild oat, herbicidal effect: 0 (Herbicidal rate of 5% or less (almost no effect))
Blackgrass [17]
  J: blackgrass, herbicidal effect: 0 (Herbicidal rate of 5% or less (almost no effect))
Italian ryegrass [18]
  K: Italian ryegrass, herbicidal effect: 0 (Herbicidal rate of 5% or less (almost no effect))
Windgrass [19]
  L: windgrass, herbicidal effect: 0 (Herbicidal rate of 5% or less (almost no effect))
Velvetleaf [20]
  M: velvetleaf, herbicidal effect: 2 (Herbicidal rate of 20% or more and less than 40%)
Redroot pigweed [21]
  N: redroot pigweed, herbicidal effect: 5 (Herbicidal rate of 90% or more (almost completely withered))
Lambsquarters [22]
  O: lambsquarters, herbicidal effect: 4 (Herbicidal rate of 70% or more and less than 90%)
Chickweed [23]
  P: chickweed, herbicidal effect: 0 (Herbicidal rate of 5% or less (almost no effect))
Persian speedwell
  R: persian speedwell, herbicidal effect: 5 (Herbicidal rate of 90% or more (almost completely withered))
